Results: patent publication US20200181117A1, “SUBSTITUTED 3-HETEROARYLOXY-1H-PYRAZOLES AND SALTS THEREOF AND THEIR USE AS HERBICIDAL ACTIVE SUBSTANCES” (BAYER CROPSCIENCE AKTIENGESELLSCHAFT, priority 2017, published 2020)

Experiments:
Assay type in all cases: in vivo
Alopecurus myosuroides [1] = assay: Pre-emergence herbicidal action; conditions: 1280 g/ha, scored visually after about 3 weeks vs untreated controls
Summary of the method: (§1)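 Visual percentage damage relative to untreated controls, scored about 3 weeks after treatment (100% = plants died, 0% = like controls). Compounds were applied at 1280 g/ha to the covering soil over sown seeds as aqueous suspension or emulsion containing 0.5% additive.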

Setaria viridis [2] = assay: Pre-emergence herbicidal action; conditions: 1280 g/ha, scored visually after about 3 weeks vs untreated controls
Summary of the method: as §1

Lolium rigidum [3] = assay: Pre-emergence herbicidal action; conditions: 1280 g/ha, scored visually after about 3 weeks vs untreated controls
Summary of the method: as §1

Pharbitis purpurea [4] = assay: Pre-emergence herbicidal action; conditions: 1280 g/ha, scored visually after about 3 weeks vs untreated controls
Summary of the method: as §1

Echinochloa crus-galli [5] = assay: Pre-emergence herbicidal action; conditions: 1280 g/ha, scored visually after about 3 weeks vs untreated controls
Summary of the method: as §1

Avena fatua [6] = assay: Pre-emergence herbicidal action; conditions: 1280 g/ha, scored visually after about 3 weeks vs untreated controls
Summary of the method: as §1

Stellaria media [7] = assay: Pre-emergence herbicidal action; conditions: 1280 g/ha, scored visually after about 3 weeks vs untreated controls
Summary of the method: as §1

Viola tricolor [8] = assay: Pre-emergence herbicidal action; conditions: 1280 g/ha, scored visually after about 3 weeks vs untreated controls
Summary of the method: as §1

Veronica persica [9] = assay: Pre-emergence herbicidal action; conditions: 1280 g/ha, scored visually after about 3 weeks vs untreated controls
Summary of the method: as §1

Hordeum murinum [10] = assay: Pre-emergence herbicidal action; conditions: 1280 g/ha, scored visually after about 3 weeks vs untreated controls
Summary of the method: as §1

Matricaria inodora [11] = assay: Pre-emergence herbicidal action; conditions: 1280 g/ha, scored visually after about 3 weeks vs untreated controls
Summary of the method: as §1

Abutilon theophrasti [12] = assay: Pre-emergence herbicidal action; conditions: 1280 g/ha, scored visually after about 3 weeks vs untreated controls
Summary of the method: as §1

Amaranthus retroflexus [13] = assay: Pre-emergence herbicidal action; conditions: 1280 g/ha, scored visually after about 3 weeks vs untreated controls
Summary of the method: as §1

Alopecurus myosuroides [14] = assay: Post-emergence herbicidal action; conditions: 1280 g/ha, rated visually after about 3 weeks vs untreated controls
Summary of the method: (§2)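 Greenhouse weeds in sandy loam sprayed at one-leaf stage (2-3 weeks after sowing) with WP or EC formulations plus 0.5% additive, 600 l/ha water, 1280 g/ha. Activity scored visually about 3 weeks later versus untreated controls (100% = dead, 0% = like control).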

Setaria viridis [15] = assay: Post-emergence herbicidal action; conditions: 1280 g/ha, rated visually after about 3 weeks vs untreated controls
Summary of the method: as §2

Lolium rigidum [16] = assay: Post-emergence herbicidal action; conditions: 1280 g/ha, rated visually after about 3 weeks vs untreated controls
Summary of the method: as §2

Echinochloa crus-galli [17] = assay: Post-emergence herbicidal action; conditions: 1280 g/ha, rated visually after about 3 weeks vs untreated controls
Summary of the method: as §2

Avena fatua [18] = assay: Post-emergence herbicidal action; conditions: 1280 g/ha, rated visually after about 3 weeks vs untreated controls
Summary of the method: as §2

Stellaria media [19] = assay: Post-emergence herbicidal action; conditions: 1280 g/ha, rated visually after about 3 weeks vs untreated controls
Summary of the method: as §2

Viola tricolor [20] = assay: Post-emergence herbicidal action; conditions: 1280 g/ha, rated visually after about 3 weeks vs untreated controls
Summary of the method: as §2

Polygonum convolvulus [21] = assay: Post-emergence herbicidal action; conditions: 1280 g/ha, rated visually after about 3 weeks vs untreated controls
Summary of the method: as §2

Abutilon theophrasti [22] = assay: Post-emergence herbicidal action; conditions: 1280 g/ha, rated visually after about 3 weeks vs untreated controls
Summary of the method: as §2

Amaranthus retroflexus [23] = assay: Post-emergence herbicidal action; conditions: 1280 g/ha, rated visually after about 3 weeks vs untreated controls
Summary of the method: as §2

Polygonum convolvulus [24] = assay: Pre-emergence herbicidal action; conditions: 1280 g/ha, scored visually after about 3 weeks vs untreated controls
Summary of the method: as §1

Veronica persica [25] = assay: Post-emergence herbicidal action; conditions: 1280 g/ha, rated visually after about 3 weeks vs untreated controls
Summary of the method: as §2

Matricaria inodora [26] = assay: Post-emergence herbicidal action; conditions: 1280 g/ha, rated visually after about 3 weeks vs untreated controls
Summary of the method: as §2

Pharbitis purpurea [27] = assay: Post-emergence herbicidal action; conditions: 1280 g/ha, rated visually after about 3 weeks vs untreated controls
Summary of the method: as §2

Hordeum murinum [28] = assay: Post-emergence herbicidal action; conditions: 1280 g/ha, rated visually after about 3 weeks vs untreated controls
Summary of the method: as §2

SMILES	herbicidal activity on Alopecurus myosuroides (Alopecurus myosuroides [1]) [%]	herbicidal activity on Setaria viridis (Setaria viridis [2]) [%]	herbicidal activity on Lolium rigidum (Lolium rigidum [3]) [%]	herbicidal activity on Echinochloa crus-galli (Echinochloa crus-galli [5]) [%]	herbicidal activity on Avena fatua (Avena fatua [6]) [%]	herbicidal activity on Stellaria media (Stellaria media [7]) [%]	herbicidal activity on Viola tricolor (Viola tricolor [8]) [%]	herbicidal activity on Veronica persica (Veronica persica [9]) [%]	herbicidal activity on Matricaria inodora (Matricaria inodora [11]) [%]	herbicidal activity on Abutilon theophrasti (Abutilon theophrasti [12]) [%]	herbicidal activity on Amaranthus retroflexus (Amaranthus retroflexus [13]) [%]	herbicidal activity on Alopecurus myosuroides (Alopecurus myosuroides [14]) [%]	herbicidal activity on Setaria viridis (Setaria viridis [15]) [%]	herbicidal activity on Echinochloa crus-galli (Echinochloa crus-galli [17]) [%]	herbicidal activity on Stellaria media (Stellaria media [19]) [%]	herbicidal activity on Viola tricolor (Viola tricolor [20]) [%]	herbicidal activity on Polygonum convolvulus (Polygonum convolvulus [21]) [%]	herbicidal activity on Abutilon theophrasti (Abutilon theophrasti [22]) [%]	herbicidal activity on Amaranthus retroflexus (Amaranthus retroflexus [23]) [%]	herbicidal activity on Polygonum convolvulus (Polygonum convolvulus [24]) [%]	also measured
Cc1c(Sc2ccc(F)c(F)c2)c(Oc2ncccn2)nn1C [Example I-036]	90	100	100	100	90	100	100	100	90	100	90	90	90	90	90	100	100	90	100	–	herbicidal activity on Pharbitis purpurea (Pharbitis purpurea [4]): 80%; herbicidal activity on Hordeum murinum (Hordeum murinum [10]): 100%; herbicidal activity on Lolium rigidum (Lolium rigidum [16]): 90%; herbicidal activity on Avena fatua (Avena fatua [18]): 100%
Cc1c(Sc2ccc(F)cc2)c(Oc2ncc(Cl)cn2)nn1C [Example I-060]	–	90	–	80	–	–	100	100	–	80	100	90	80	90	100	100	80	80	100	100	herbicidal activity on Veronica persica (Veronica persica [25]): 90%; herbicidal activity on Matricaria inodora (Matricaria inodora [26]): 80%
Cc1c(Sc2ccc(F)cc2Cl)c(Oc2ncc(F)cn2)nn1C [Example I-065]	–	100	–	–	–	100	100	–	90	80	100	–	–	–	90	100	100	80	100	100	herbicidal activity on Pharbitis purpurea (Pharbitis purpurea [27]): 100%; herbicidal activity on Matricaria inodora (Matricaria inodora [26]): 80%
Cc1c(Sc2cccc(Cl)c2)c(Oc2ncccn2)nn1C [Example I-069]	100	100	100	100	100	100	100	100	100	100	100	100	80	80	–	100	100	80	100	100	herbicidal activity on Hordeum murinum (Hordeum murinum [10]): 100%; herbicidal activity on Hordeum murinum (Hordeum murinum [28]): 80%
Cc1c(Sc2ccc(F)c(F)c2)c(Oc2ncc(F)cn2)nn1C [Example I-093]	100	100	100	100	100	100	100	100	100	100	100	100	100	100	100	100	100	90	100	100	herbicidal activity on Pharbitis purpurea (Pharbitis purpurea [4]): 80%; herbicidal activity on Hordeum murinum (Hordeum murinum [10]): 100%; herbicidal activity on Lolium rigidum (Lolium rigidum [16]): 100%; herbicidal activity on Pharbitis purpurea (Pharbitis purpurea [27]): 90%; herbicidal activity on Avena fatua (Avena fatua [18]): 100%; herbicidal activity on Hordeum murinum (Hordeum murinum [28]): 90%
Cc1c(Sc2ccccc2)c(Oc2ncc(F)cn2)nn1C [Example I-133]	100	100	100	100	100	100	100	–	100	100	100	100	100	100	100	100	100	100	100	100	herbicidal activity on Hordeum murinum (Hordeum murinum [10]): 100%; herbicidal activity on Lolium rigidum (Lolium rigidum [16]): 90%; herbicidal activity on Pharbitis purpurea (Pharbitis purpurea [27]): 100%; herbicidal activity on Veronica persica (Veronica persica [25]): 100%; herbicidal activity on Hordeum murinum (Hordeum murinum [28]): 90%
Cc1c(Sc2ccc(F)c(F)c2)c(Oc2cnccn2)nn1C [Example I-141]	90	100	90	100	80	90	100	100	100	100	100	80	90	100	100	90	100	90	100	100	herbicidal activity on Hordeum murinum (Hordeum murinum [10]): 80%; herbicidal activity on Pharbitis purpurea (Pharbitis purpurea [27]): 80%; herbicidal activity on Avena fatua (Avena fatua [18]): 80%; herbicidal activity on Veronica persica (Veronica persica [25]): 100%
Cc1c(Sc2cccc(F)c2)c(Oc2ncc(F)cn2)nn1C [Example I-158]	100	100	100	100	100	100	100	100	100	100	100	100	100	100	90	100	100	90	100	100	herbicidal activity on Hordeum murinum (Hordeum murinum [10]): 100%; herbicidal activity on Lolium rigidum (Lolium rigidum [16]): 100%; herbicidal activity on Pharbitis purpurea (Pharbitis purpurea [27]): 80%; herbicidal activity on Avena fatua (Avena fatua [18]): 80%
